Key:
Assay type in all cases: cell-based, human
SR = experiment: NCI screening panel, SR (Leukemia)
Protocol: (§1) Representative compounds of Formula I were screened using the National Cancer Institute (NCI) screening panel, which consists of a panel of human tumor cell lines, representing leukemia, melanoma, and cancers of the lung, colon, ovary, breast, prostate and renal system.
(§2) After 24 h, two plates of each cell line are fixed in situ with TCA, to represent a measurement of the cell population for each cell line at the time of drug addition (Tz). Experimental drugs are solubilised in dimethyl sulfoxide at 400-fold the desired final maximum test concentration and stored frozen prior to use. At the time of drug addition, an aliquot of frozen concentrate is thawed and diluted to twice the desired final maximum test concentration with complete medium containing 50 μg/mL gentamicin. Additional four, 10-fold or ½ log serial dilutions are made to provide a total of five drug concentrations plus control. Aliquots of 100 μl of these different drug dilutions are added to the appropriate microtiter wells already containing 100 μl of medium, resulting in the required final drug concentrations.
(§3) Following drug addition, the plates are incubated for an additional 48 h at 37° C., 5% CO2, 95% air, and 100% relative humidity. For adherent cells, the assay is terminated by the addition of cold TCA (trichloroacetic acid). Cells are fixed in situ by the gentle addition of 50 μl of cold 50% (w/v) TCA (final concentration, 10% TCA) and incubated for 60 minutes at 4° C. The supernatant is discarded, and the plates are washed five times with tap water and air dried. Sulforhodamine B (SRB) solution (100 μl) at 0.4% (w/v) in 1% acetic acid is added to each well, and plates are incubated for 10 minutes at room temperature. After staining, unbound dye is removed by washing five times with 1% acetic acid and the plates are air dried. Bound stain is subsequently solubilised with 10 mM trizma base, and the absorbance is read on an automated plate reader at a wavelength of 515 nm. For suspension cells, the methodology is the same except that the assay is terminated by fixing settled cells at the bottom of the wells by gently adding 50 μl of 80% TCA (final concentration, 16% TCA). Using the seven absorbance measurements [time zero, (Tz), control growth, (C), and test growth in the presence of drug at the five concentration levels (Ti)], the percentage growth is calculated at each of the drug concentrations levels. Percentage growth inhibition is calculated as: [(Ti−Tz)/(C−Tz)]×100 for concentrations for which Ti>/=Tz and [(Ti−Tz)/Tz]×100 for concentrations for which Ti<Tz.
(§4) Three dose response parameters are calculated for each experimental agent. Growth inhibition of 50% (GI50) is calculated from [(Ti−Tz)/(C−Tz)]×100=50, which is the drug concentration resulting in a 50% reduction in the net protein increase (as measured by SRB staining) in control cells during the drug incubation. The drug concentration resulting in total growth inhibition (TGI) is calculated from Ti=Tz. The LC50 (concentration of drug resulting in a 50% reduction in the measured protein at the end of the drug treatment as compared to that at the beginning) indicating a net loss of cells following treatment is calculated from [(Ti−Tz)/Tz]×100=−50. Values are calculated for each of these three parameters if the level of activity is reached. However, if the effect is not reached or is exceeded, the value for that parameter is expressed as greater or less than the maximum or minimum concentration tested.

MALME-3M = experiment: NCI screening panel, MALME-3M (Melanoma)
Protocol: as §1, §2, §3, §4

PC-3 = experiment: NCI screening panel, PC-3 (Prostate Cancer)
Protocol: as §1, §2, §3, §4

Row | SMILES | Log10GI50 (SR) | Log10LC50 (SR) | Log10TGI50 (SR) | Log10GI50 (MALME-3M) | Log10LC50 (MALME-3M) | Log10TGI50 (MALME-3M) | Log10GI50 (PC-3) | Log10TGI50 (PC-3) | Log10LC50 (PC-3)
1 | CC(C)C[C@H](NC(=O)[C@H](COC(F)F)NC(=O)CN1CCOCC1)C(=O)N[C@@H](COC(F)F)C(=O)N[C@@H](CC(C)C)C(=O)[C@@]1(C)CO1 [Example 1, (2S)—N-[(1S)-1-(difluoromethoxymethyl)-2-[[(1S)-3-methyl-1-[(2R)-2-methyloxirane-2-carbonyl]butyl]amino]-2-oxo-ethyl]-2-[[(2S)-3-(difluoromethoxy)-2-[(2-morpholinoacetyl)amino]propanoyl]amino]-4-methyl-pentanamide] | −7.52 | >−4.00 | −4.61 | −7.39 | >−4.00 | −6.49 | −7.49 | −6.81 | 
2 | CC(C)C[C@H](NC(=O)[C@H](COC(F)F)NC(=O)CN1CCOCC1)C(=O)N[C@@H](Cc1ccccc1)C(=O)N[C@@H](CC(C)C)C(=O)[C@@]1(C)CO1 [Example 2, (2S)-N-[(1S)-1-benzyl-2-[[(1S)-3-methyl-1-[(2R)-2-methyloxirane-2-carbonyl]butyl]-amino]-2-oxo-ethyl]-2-[[(2S)-3-(difluoromethoxy)-2-[(2-morpholinoacetyl)amino]propanoyl]amino]-4-methyl-pentanamide] | <−8.00 | >−4.00 | >−4.00 |  |  |  | −7.57 | −6.93 | −5.62
3 | CC(C)C[C@H](NC(=O)[C@H](COC(F)F)NC(=O)CN1CCOCC1)C(=O)N[C@@H](Cc1ccccc1)C(=O)N[C@@H](Cc1ccccc1)C(=O)[C@@]1(C)CO1 [Example 3, (2S)-N-[(1S)-1-benzyl-2-[[(1S)-1-benzyl-2-[(2R)-2-methyloxiran-2-yl]-2-oxo-ethyl]amino]-2-oxo-ethyl]-2-[[(2S)-3-(difluoromethoxy)-2-[(2-morpholinoacetyl)-amino]propanoyl]amino]-4-methyl-pentan-amide] | <−8.00 | >−4.00 | >−4.00 | −7.65 | >−4.00 | −7.07 | −7.73 | −7.04 | −6.09
4 | CC(C)C[C@H](NC(=O)[C@H](COC(F)F)NC(=O)CN1CCOCC1)C(=O)N[C@@H](COC(F)F)C(=O)N[C@@H](Cc1ccccc1)C(=O)[C@@]1(C)CO1 [Example 4, (2S)-N-[(1S)-2-[[(1S)-1-benzyl-2-[(2R)-2-methyloxiran-2-yl]-2-oxo-ethyl]amino]-1-(difluoromethoxymethyl)-2-oxo-ethyl]-2-[[(2S)-3-(difluoromethoxy)-2-[(2-mor-pholinoacetyl)amino]propanoyl]amino]-4 methyl-pentanamide] | −7.66 | >−4.00 | >−4.00 | −7.49 | >−4.00 | −6.38 | −7.18 | −6.40 | −4.68
5 | CC(C)C[C@H](NC(=O)[C@H](COC(F)F)NC(=O)[C@H](COC(F)F)NC(=O)[C@H](CCc1ccccc1)NC(=O)CN1CCOCC1)C(=O)[C@@]1(C)CO1 [Example 7, (2S)-N-[(1S)-1-(difluoromethoxymethyl)-2-[[(1S)-1-(difluoromethoxymethyl)-2-[[(1S)-3-methyl-1-[(2R)-2-methyloxirane-2-carbo-nyl]butyl]amino]-2-oxo-ethyl]amino]-2-oxo-ethyl]-2-[(2-morpholinoacetyl)amino]-4-phenyl-butanamide] | −7.64 | >−4.00 | >−4.00 | −7.39 | >−4.00 | −6.75 | −7.49 | −6.86 | −5.41
6 | CC(C)C[C@H](NC(=O)[C@H](Cc1ccccc1)NC(=O)[C@H](COC(F)F)NC(=O)[C@H](COC(F)F)NC(=O)CN1CCOCC1)C(=O)[C@@]1(C)CO1 [Example 11, (2S)-2-[[(2S)-3-(difluoromethoxy)-2-[[(2S)-3-(difluoromethoxy)-2-[(2-morpholinoacetyl)-amino]propanoyl]amino]propanoyl]amino]-N-[(1S)-3-methyl-1-[(2R)-2-methyloxirane-2-carbonyl]butyl]-3-phenyl-propanamide] | −7.82 | >−4.00 | >−4.00 | −7.14 | >−4.00 | −6.30 | −7.32 | −6.51 | >−4.00
7 | CC(C)C[C@H](NC(=O)[C@H](COC(F)F)NC(=O)[C@H](COC(F)F)NC(=O)[C@H](COC(F)F)NC(=O)CN1CCOCC1)C(=O)[C@@]1(C)CO1 [Example 17, (2S)-3-(difluoromethoxy)-N-[(1S)-1-(difluoromethoxymethyl)-2-[[(1S)-1-(difluoro-methoxymethyl)-2-[[(1S)-3-methyl-1-[(2R)-2-methyloxirane-2-carbonyl]butyl]amino]-2-oxo-ethyl]amino]-2-oxo-ethyl]-2-[(2-mor-pholinoacetyl)amino]-propanamide] | −7.27 |  | >−4.00 | −6.76 | >−4.00 | −6.09 | −6.76 | −6.12 | −5.02

— US20150218212A1, “FLUORINATED EPOXYKETONE-BASED TETRAPEPTIDE COMPOUNDS AND USES THEREOF AS PROTEASOME INHIBITORS” (FLUORINOV PHARMA INC., priority 2012, published 2015)
